In patent US20100204224A1, “AZACYCLIC COMPOUNDS AS INHIBITORS OF SENSORY NEURONE SPECIFIC SODIUM CHANNELS” (priority 2005, published 2010):
Structures can show the parent of a compound that is named as a salt.

What follows are molecules tested against T1, human Nav1.8 (hNav1.8) ion channel (Homo sapiens, UniProt Q9Y5Y9) (assay: Inhibition of human Nav1.8 stably expressed in SH-SY-5Y cells (membrane potential dye fluorescence assay)). Conditions: SH-SY-5Y hNav1.8 cells; FLIPR membrane potential dye; 10 μM pyrethroid, 250 nM TTX; test concentration range 100 μM-0.05 μM; read-out: hNav1.8 IC50.
T1 construct: expressed in transfected cells
T1 sequence (Q9Y5Y9 whole entry): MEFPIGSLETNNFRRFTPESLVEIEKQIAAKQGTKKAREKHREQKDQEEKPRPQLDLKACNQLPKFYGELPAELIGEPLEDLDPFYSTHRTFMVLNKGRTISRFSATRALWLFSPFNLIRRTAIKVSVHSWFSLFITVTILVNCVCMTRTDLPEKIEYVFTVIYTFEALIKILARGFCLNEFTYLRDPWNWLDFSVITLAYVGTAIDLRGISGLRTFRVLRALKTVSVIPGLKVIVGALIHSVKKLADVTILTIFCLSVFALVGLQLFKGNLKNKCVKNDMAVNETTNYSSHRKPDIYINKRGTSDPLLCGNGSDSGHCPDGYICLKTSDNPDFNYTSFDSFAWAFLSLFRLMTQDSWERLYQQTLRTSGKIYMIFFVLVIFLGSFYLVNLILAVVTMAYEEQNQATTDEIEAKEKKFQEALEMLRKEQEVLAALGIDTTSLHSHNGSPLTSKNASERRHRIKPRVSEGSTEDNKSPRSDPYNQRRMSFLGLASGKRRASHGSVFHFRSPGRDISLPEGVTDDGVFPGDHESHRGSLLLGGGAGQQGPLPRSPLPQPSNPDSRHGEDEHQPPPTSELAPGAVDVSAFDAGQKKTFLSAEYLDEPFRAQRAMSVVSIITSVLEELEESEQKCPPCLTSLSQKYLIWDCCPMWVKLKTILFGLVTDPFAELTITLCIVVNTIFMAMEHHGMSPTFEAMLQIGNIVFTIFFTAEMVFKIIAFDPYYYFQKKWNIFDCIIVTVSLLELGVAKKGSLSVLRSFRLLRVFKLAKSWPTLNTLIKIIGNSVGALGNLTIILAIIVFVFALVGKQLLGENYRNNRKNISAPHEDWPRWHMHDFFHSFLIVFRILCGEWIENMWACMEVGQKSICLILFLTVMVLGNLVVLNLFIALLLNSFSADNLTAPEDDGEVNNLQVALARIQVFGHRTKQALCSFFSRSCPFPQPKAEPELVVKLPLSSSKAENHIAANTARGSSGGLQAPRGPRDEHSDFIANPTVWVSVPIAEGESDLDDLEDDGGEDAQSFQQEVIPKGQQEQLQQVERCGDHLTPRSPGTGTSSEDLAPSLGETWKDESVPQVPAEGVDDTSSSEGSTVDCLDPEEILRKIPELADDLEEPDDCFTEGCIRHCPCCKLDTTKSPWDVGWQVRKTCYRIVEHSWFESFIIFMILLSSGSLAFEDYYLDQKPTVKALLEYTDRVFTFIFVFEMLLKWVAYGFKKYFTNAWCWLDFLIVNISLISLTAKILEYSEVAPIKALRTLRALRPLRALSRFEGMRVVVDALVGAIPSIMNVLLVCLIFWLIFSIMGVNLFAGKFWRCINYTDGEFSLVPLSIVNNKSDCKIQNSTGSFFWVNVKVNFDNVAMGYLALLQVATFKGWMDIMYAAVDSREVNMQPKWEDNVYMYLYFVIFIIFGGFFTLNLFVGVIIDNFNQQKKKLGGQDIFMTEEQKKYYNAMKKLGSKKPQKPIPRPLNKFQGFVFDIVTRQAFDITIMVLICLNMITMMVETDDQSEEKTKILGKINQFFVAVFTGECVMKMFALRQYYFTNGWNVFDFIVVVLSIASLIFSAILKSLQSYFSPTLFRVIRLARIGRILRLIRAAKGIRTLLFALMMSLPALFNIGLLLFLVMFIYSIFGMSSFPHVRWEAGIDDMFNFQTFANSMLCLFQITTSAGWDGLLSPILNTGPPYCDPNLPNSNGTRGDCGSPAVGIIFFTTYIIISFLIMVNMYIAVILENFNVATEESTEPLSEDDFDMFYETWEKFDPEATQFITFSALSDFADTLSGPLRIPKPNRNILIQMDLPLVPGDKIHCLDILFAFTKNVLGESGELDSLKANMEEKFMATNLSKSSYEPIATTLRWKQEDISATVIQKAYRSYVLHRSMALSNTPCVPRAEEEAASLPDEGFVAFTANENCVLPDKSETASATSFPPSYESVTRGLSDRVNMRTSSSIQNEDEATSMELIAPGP
Assay type: cell-based

SMILES	IC50
O=C(Nc1ccc(Oc2ccc(F)cc2)cc1)N1CCC2(CCN(C3Cc4ccccc4C3)C2)C1 (stereo not drawn) [Example 104, 7-Indan-2-yl-2,7-diaza-spiro[4.4]nonane-2-carboxylic acid [4-(4-fluoro-phenoxy)-phenyl]-amide]	0.43 µM
CC(c1ccccc1Cl)N1CC2CC1CN2C(=O)Nc1ccc(Oc2ccc(Cl)cc2)cc1 (stereo not drawn) [Example 128, 5-[1-(2-Chloro-phenyl)-ethyl]-2,5-diaza-bicyclo[2.2.1]heptane-2-carboxylic acid [4-(4-chloro-phenoxy)-phenyl]-amide]	1.42 µM
CC(c1ccccc1Cl)N1CC2CC1CN2C(=O)N(C)c1ccc(Oc2ccc(F)cc2)cc1 (stereo not drawn) [Example 143, 5-[1-(2-Chloro-phenyl)-ethyl]-2,5-diaza-bicyclo[2.2.1]heptane-2-carboxylic acid [4-(4-fluoro-phenoxy)-phenyl]-methyl-amide]	3.21 µM
Cc1ccccc1C(C)N1CC2CC1CN2C(=O)Nc1ccc(C(O)c2ccccc2)cc1 (stereo not drawn) [Example 68, 5-(1-o-Tolyl-ethyl)-2,5-diaza-bicyclo[2.2.1]heptane-2-carboxylic acid [4-(hydroxy-phenyl-methyl)-phenyl]-amide]	6.15 µM
CC(c1ccc(F)cc1Cl)N1CC2CC1CN2C(=O)Nc1ccc(Oc2ccc(F)cc2)cc1 (stereo not drawn) [Example 133, 5-[1-(2-Chloro-4-fluoro-phenyl)-ethyl]-2,5-diaza-bicyclo[2.2.1]heptane-2-carboxylic acid [4-(4-fluoro-phenoxy)-phenyl]-amide]	1.19 µM
COCCOCCOc1ccc(NC(=O)N2CC3CC2CN3C(C)c2ccccc2C)cc1 (stereo not drawn) [Example 18, 5-(1-o-Tolyl-ethyl)-2,5-diaza-bicyclo[2.2.1]heptane-2-carboxylic acid {4-[2-(2-methoxy-ethoxy)-ethoxy]-phenyl}-amide]	≥ 30 µM
Cc1ccc(C(C)N2CC3CC2CN3C(=O)Nc2ccc(Oc3ccc(F)cc3)cc2)c(C)c1 (stereo not drawn) [Example 116, 5-[1-(2,4-Dimethyl-phenyl)-ethyl]-2,5-diaza-bicyclo[2.2.1]heptane-2-carboxylic acid [4-(4-fluoro-phenoxy)-phenyl]-amide]	0.29 µM
CC(c1ccc(C#N)cc1)N1CC2CC1CN2C(=O)Nc1ccc(Oc2ccc(F)cc2)cc1 (stereo not drawn) [Example 91, 5-[1-(4-Cyano-phenyl)-ethyl]-2,5-diaza-bicyclo[2.2.1]heptane-2-carboxylic acid [4-(4-fluoro-phenoxy)-phenyl]-amide]	1.05 µM
CC(c1ccccc1Cl)N1CC2CN(C(=O)Nc3ccc(Oc4ccc(F)cc4)cc3)CC2C1 (stereo not drawn) [Example 107, 5-[1-(2-Chloro-phenyl)-ethyl]-hexahydro-pyrrolo[3,4-c]pyrrole-2-carboxylic acid [4-(4-fluoro-phenoxy)-phenyl]-amide]	1.13 µM
CC(c1ccccc1Cl)N1CC2CC1CN2C(=O)Nc1ccc(Oc2cccc(F)c2)cc1 (stereo not drawn) [Example 108, 5-[1-(2-Chloro-phenyl)-ethyl]-2,5-diaza-bicyclo[2.2.1]heptane-2-carboxylic acid [4-(3-fluoro-phenoxy)-phenyl]-amide]	0.6 µM
O=C(Nc1ccc(Oc2ccccc2)cc1)N1CC2CC1CN2C1CCc2cccc(Cl)c21 (stereo not drawn) [Example 141, 5-(7-Chloro-indan-1-yl)-2,5-diaza-bicyclo[2.2.1]heptane-2-carboxylic acid (4-phenoxy-phenyl)-amide]	0.2 µM
O=C(Nc1ccc(Oc2ccc(F)cc2)cc1)N1CC2CN(Cc3ccccc3)CC2C1 (stereo not drawn) [Example 98, 5-Benzyl-hexahydro-pyrrolo[3,4-c]pyrrole-2-carboxylic acid [4-(4-fluoro-phenoxy)-phenyl]-amide]	0.17 µM
Cc1ccccc1C(C)N1CC2CC1CN2C(=O)Nc1ccc(OCC2CCCCO2)cc1 (stereo not drawn) [Example 25, 5-(1-o-Tolyl-ethyl)-2,5-diaza-bicyclo[2.2.1]heptane-2-carboxylic acid [4-(tetrahydro-pyran-2-ylmethoxy)-phenyl]-amide]	5.38 µM
Cc1ccccc1C(C)N1CC2CC1CN2C(=O)Nc1ccc(OCCn2ccnc2)cc1 (stereo not drawn) [Example 43, 5-(1-o-Tolyl-ethyl)-2,5-diaza-bicyclo[2.2.1]heptane-2-carboxylic acid [4-(2-imidazol-1-yl-ethoxy)-phenyl]-amide]	≥ 30 µM
CC(c1ccccc1Cl)N1CC2CC1CN2C(=O)c1ccc(Oc2ccc(F)cc2)cc1 (stereo not drawn) [Example 151, {5-[1-(2-Chloro-phenyl)-ethyl]-2,5-diaza-bicyclo[2.2.1]hept-2-yl}-[4-(4-fluoro-phenoxy)-phenyl]-methanone]	1.11 µM
CC(c1ccccc1Cl)N1CC2CC1CN2C(=O)c1ccc(Oc2ccc(F)cc2)c(F)c1 (stereo not drawn) [Example 179, {5-[1-(2-Chloro-phenyl)-ethyl]-2,5-diaza-bicyclo[2.2.1]hept-2-yl}-[3-fluoro-4-(4-fluoro-phenoxy)-phenyl]-methanone methanesulfonate salt]	1.34 µM
CC(c1ccccc1Cl)N1CC2CC1CN2C(=O)N(C)c1ccc(Oc2ccc(F)cc2)cc1 (stereo not drawn) [Example 115, 5-[1-(2-Chloro-phenyl)-ethyl]-2,5-diaza-bicyclo[2.2.1]heptane-2-carboxylic acid [4-(4-fluoro-phenoxy)-phenyl]-methyl-amide]	1.98 µM
CC(c1ccc(F)cc1)N1CC2CC1CN2C(=O)Nc1ccc(Oc2ccccc2)cc1 (stereo not drawn) [Example 51, 5-[1-(4-Fluoro-phenyl)-ethyl]-2,5-diaza-bicyclo[2.2.1]heptane-2-carboxylic acid (4-phenoxy-phenyl)-amide]	0.41 µM
Cc1ccccc1C(C)N1CC2CC1CN2C(=O)Nc1ccc(OCc2ccccc2)cc1 (stereo not drawn) [Example 33, 5-(1-o-Tolyl-ethyl)-2,5-diaza-bicyclo[2.2.1]heptane-2-carboxylic acid (4-benzyloxy-phenyl)-amide]	0.49 µM
CC(c1ccccc1Cl)N1CC2CC1CN2C(=O)c1ccc(Oc2ccc(F)cc2)cc1 (stereo not drawn) [Example 152, {5-[1-(2-Chloro-phenyl)-ethyl]-2,5-diaza-bicyclo[2.2.1]hept-2-yl}-[4-(4-fluoro-phenoxy)-phenyl]-methanone]	2.52 µM
COCCCOc1ccc(NC(=O)N2CC3CC2CN3C(C)c2ccccc2C)cc1 (stereo not drawn) [Example 27, 5-(1-o-Tolyl-ethyl)-2,5-diaza-bicyclo[2.2.1]heptane-2-carboxylic acid [4-(3-methoxy-propoxy)-phenyl]-amide]	8.48 µM
CC(c1ccccc1Cl)N1CCC2(CCN(C(=O)Nc3ccc(Oc4ccc(F)cc4)cc3)C2)C1 (stereo not drawn) [Example 111, 7-[1-(2-Chloro-phenyl)-ethyl]-2,7-diaza-spiro[4.4]nonane-2-carboxylic acid [4-(4-fluoro-phenoxy)-phenyl]-amide]	0.38 µM
CC(C(C#N)c1ccccc1)N1CC2CC1CN2C(=O)Nc1ccc(C(F)(F)F)cc1 (stereo not drawn) [Example 81, 5-(2-Cyano-1-methyl-2-phenyl-ethyl)-2,5-diaza-bicyclo[2.2.1]heptane-2-carboxylic acid (4-trifluoromethyl-phenyl)-amide]	26.2 µM
CC(c1ccccc1Cl)N1CC2CC1CN2C(=O)c1ccc(Oc2cccc(C#N)c2)cc1 (stereo not drawn) [Example 174, 3-(4-{5-[1-(2-Chloro-phenyl)-ethyl]-2,5-diaza-bicyclo[2.2.1]heptane-2-carbonyl}-phenoxy)-benzonitrile]	1.4 µM
CC(c1ccccc1Cl)N1CC2CC1CN2C(=O)c1ccc(Oc2cccc(F)c2)cc1 (stereo not drawn) [Example 175, {5-[1-(2-Chloro-phenyl)-ethyl]-2,5-diaza-bicyclo[2.2.1]hept-2-yl}-[4-(3-fluoro-phenoxy)-phenyl]-methanone]	0.64 µM
CC(c1ccccc1Cl)N1CC2CC1CN2C(=O)Nc1ccc(Oc2ccccc2F)cc1 (stereo not drawn) [Example 109, 5-[1-(2-Chloro-phenyl)-ethyl]-2,5-diaza-bicyclo[2.2.1]heptane-2-carboxylic acid [4-(2-fluoro-phenoxy)-phenyl]-amide]	0.68 µM
O=C(Nc1ccc(C(F)(F)F)cc1)N1CC2CC1CN2C1Cc2ccccc2C1 (stereo not drawn) [Example 99, 5-Indan-2-yl-2,5-diaza-bicyclo[2.2.1]heptane-2-carboxylic acid (4-trifluoromethyl-phenyl)-amide]	2.38 µM

Same assay, conditions: hNav1.8 IC50, SH-SY-5Y hNav1.8 cells; FLIPR membrane potential dye; 10 μM pyrethroid, 250 nM TTX; test concentration range 100 μM-0.05 μM

SMILES	IC50
Cc1ccccc1C(C)N1CC2CC1CN2C(=O)Nc1ccc(Oc2ccc(F)cc2)cc1 (stereo not drawn) [Example 87, 5-(1-o-Tolyl-ethyl)-2,5-diaza-bicyclo[2.2.1]heptane-2-carboxylic acid [4-(4-fluoro-phenoxy)-phenyl]-amide methanesulfonate salt]	0.6 µM
CC(c1ccc(F)cc1Cl)N1CC2CC1CN2C(=O)Cc1ccc(Oc2ccc(F)cc2)cc1 (single isomer, unassigned) [Example 162, 1-{5-[1-(2-Chloro-4-fluoro-phenyl)-ethyl]-2,5-diaza-bicyclo[2.2.1]hept-2-yl}-2-[4-(4-fluoro-phenoxy)-phenyl]-ethanone]	18.3 µM
CC(c1c(F)cccc1Cl)N1CC2CC1CN2C(=O)Cc1ccc(Oc2ccc(F)cc2)cc1 (single isomer, unassigned) [Example 165, 1-{5-[1-(2-Chloro-6-fluoro-phenyl)-ethyl]-2,5-diaza-bicyclo[2.2.1]hept-2-yl}-2-[4-(4-fluoro-phenoxy)-phenyl]-ethanone]	1.23 µM
O=C(Cc1ccc(C(F)(F)F)cc1)N1CC2CC1CN2C1CCc2ccc(F)cc2C1 (stereo not drawn) [Example 148, 1-[5-(7-Fluoro-1,2,3,4-tetrahydro-naphthalen-2-yl)-2,5-diaza-bicyclo[2.2.1]hept-2-yl]-2-(4-trifluoromethyl-phenyl)-ethanone]	2.39 µM
Cc1ccccc1C(C)N1CC2CC1CN2C(=O)Cc1ccc(Oc2ccccc2)cc1 (stereo not drawn) [Example 37, 2-(4-Phenoxy-phenyl)-1-[5-(1-o-tolyl-ethyl)-2,5-diaza-bicyclo[2.2.1]hept-2-yl]-ethanone]	0.96 µM
CC(c1ccc(F)cc1Cl)N1CC2CC1CN2C(=O)Cc1ccc(Oc2ccc(F)cc2)cc1 (single isomer, unassigned) [Example 161, 1-{5-[1-(2-Chloro-4-fluoro-phenyl)-ethyl]-2,5-diaza-bicyclo[2.2.1]hept-2-yl}-2-[4-(4-fluoro-phenoxy)-phenyl]-ethanone]	4.75 µM
